# Where a name gives a salt, the structure may show the parent alone.
# Test system: bacterial strains that express the class D cephalosporinase OXA-15
# Assay: Synergy MIC / standard BLI potentiation MIC assay, strains expressing OXA-15;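 further: more active means a lower MIC or sMIC than Avibactam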
# Type: cell-based, E. coli
# Details: in the presence of a β-lactam; comparator Avibactam (CCC)
# Experimental: Unless otherwise indicated, the activity of the BLI compounds can be described by the MIC value obtained from a Synergy MIC assay or a BLI potentiation assay (e.g as described herein), both of which are run in the presence of a β-lactam.
# The experimental protocol was performed according to Clinical and Laboratory Standards Institute (CLSI) guidelines with modifications as described below (CLSI guidelines can be derived from the CLSI document M07-A9 published in January 2012: “Methods for Dilution Antimicrobial Susceptibility Tests for Bacteria That Grow Aerobically; Approved Standard-Ninth Edition”).
# To prepare for MIC testing, frozen glycerol stocks of clinical isolates (Klebsiella pneumoniae, Eschericia coli, Enterobacter spp, Citrobacter spp, or Pseudomonas aeruginosa) were used to streak for isolated colonies on rich, non-selective, tryptic soy agar containing 5% sheep's blood (TSAB). Frozen glycerol stocks of laboratory engineered, isogenic E. coli strains, which contain cloned β-lactamase expressing plasmids were used to streak for isolated colonies on rich, selective LB agar supplemented with 25 μg/mL tetracycline to maintain the plasmid. All strains were incubated at 37° C. for 18-24 hrs.
# On the day of testing, primary cultures were started by scraping off 5-10 colonies from the TSAB plates containing clinical strains or the tetracycline supplemented LB plates containing engineered strains. The clinical strain material was suspended in ˜5 mL of cation adjusted Mueller Hinton Broth (CAMHB) in 14 mL culture tubes. The engineered strain material was suspended in CAMHB (supplemented with 25 μg/mL tetracycline) in 14 mL culture tubes. All strains were incubated at 37° C. with aeration (200 rpm) for ˜2 hrs until the optical density at 600 nm (OD600) was ≧0.1.
# The two compound components of the assay were each diluted in CAMHB and added to the 96-well broth microdilution assay plates. 50 μL of the β-lactam was added to each well of the assay plate in 2-fold dilutions with final concentrations ranging from 128 to 0.13 μg/mL. 25 μL of the BLI compound was added to all wells in the broth microdilution plates at a final concentration of 4 μg/mL. Inoculum cultures were prepared by standardizing the primary cultures to OD600=0.1 and then adding 20 μL of the adjusted primary culture per 1 mL CAMHB for clinical strains or CAMHB (supplemented with tetracycline at 100 μg/mL) for engineered strains, so that the final inoculum density was ˜10^5 colony forming units per milliliter. Diluted inoculum cultures were used to inoculate 25 μl, per well in 96-well broth microdilution assay plates. The final volume of each well was 100 μL and contained a β-lactam at different concentrations, a BLIcompound at 4 μg/mL concentration, the bacterial culture at an OD600 of approximately 0.001 and when necessary tetracycline at 25 μg/mL.
# Plates were incubated for 18-20 hours at 37° C. with aeration (200 rpm). Following incubation, growth was confirmed visually placing plates over a viewing apparatus (stand with a mirror underneath) and then OD600 was measured using a SpectraMax 340PC384 plate reader (Molecular Devices, Sunnyvale, Calif.). Growth was defined as turbidity that could be detected with the naked eye or achieving minimum OD600 of 0.1. MIC values were defined as the lowest concentration producing no visible turbidity.
# The synergy MIC (sMIC) assay determines the concentration of the BLI required to potentiate the activity of a fixed concentration of a β-lactam antibiotic against β-lactamase producing bacterial strains. The experimental protocol was performed according to Clinical and Laboratory Standards Institute (CLSI) guidelines with modifications as described below (CLSI guidelines can be derived from the CLSI document M07-A9 published in January 2012: “Methods for Dilution Antimicrobial Susceptibility Tests for Bacteria That Grow Aerobically; Approved Standard-Ninth Edition”). […]
row,Structure (SMILES),activity against bacterial strains that express OXA-15 β-lactamase compared with Avibactam
1,"Nc1nnc([C@@H]2CC[C@@H]3CN2C(=O)N3OS(=O)(=O)O)o1 [Compound 707, (2S,5R)-2-(5-amino-1,3,4-oxadiazol-2-yl)-7-oxo-1,6-diazabicyclo[3.2.1]octan-6-yl hydrogen sulfate]",more active than Avibactam
2,"NCC(N)c1nnc([C@@H]2CC[C@@H]3CN2C(=O)N3OS(=O)(=O)O)o1 (stereo partly drawn) [Compound 717, (2S,5R)-2-(5-(1,2-diaminoethyl)-1,3,4-oxadiazol-2-yl)-7-oxo-1,6-diazabicyclo[3.2.1]octan-6-yl hydrogen sulfate]",more active than Avibactam
3,"N=C(N)NCCCc1nnc([C@@H]2CC[C@@H]3CN2C(=O)N3OS(=O)(=O)O)o1 [Compound 714, (2S,5R)-2-(5-(3-guanidinopropyl)-1,3,4-oxadiazol-2-yl)-7-oxo-1,6-diazabicyclo[3.2.1]octan-6-yl hydrogen sulfate]",more active than Avibactam
4,"NCC(O)Cc1nnc([C@@H]2CC[C@@H]3CN2C(=O)N3OS(=O)(=O)O)o1 (stereo partly drawn) [Compound 733, (2S,5R)-2-(5-(3-amino-2-hydroxypropyl)-1,3,4-oxadiazol-2-yl)-7-oxo-1,6-diazabicyclo[3.2.1]octan-6-yl hydrogen sulfate]",more active than Avibactam
5,"O=C1N2C[C@@H](CC[C@H]2c2nnc(C3CCNCC3)s2)N1OS(=O)(=O)O [Compound 719, (2S,5R)-7-oxo-2-(5-(piperidin-4-yl)-1,3,4-thiadiazol-2-yl)-1,6-diazabicyclo[3.2.1]octan-6-yl hydrogen sulfate]",more active than Avibactam
6,"O=C1N2C[C@@H](CC[C@H]2c2nnc(CC3CNC3)o2)N1OS(=O)(=O)O [Compound 725, (2S,5R)-2-(5-(azetidin-3-ylmethyl)-1,3,4-oxadiazol-2-yl)-7-oxo-1,6-diazabicyclo[3.2.1]octan-6-yl hydrogen sulfate]",more active than Avibactam
7,"O=C1N2C[C@@H](CC[C@H]2c2nnc(CNC3CCNCC3)o2)N1OS(=O)(=O)O [Compound 769, (2S,5R)-7-oxo-2-(5-((piperidin-4-ylamino)methyl)-1,3,4-oxadiazol-2-yl)-1,6-diazabicyclo[3.2.1]octan-6-yl hydrogen sulfate]",more active than Avibactam
8,"NC1CCN(c2nnc([C@@H]3CC[C@@H]4CN3C(=O)N4OS(=O)(=O)O)o2)CC1 [Compound 773, (2S,5R)-2-(5-(4-aminopiperidin-1-yl)-1,3,4-oxadiazol-2-yl)-7-oxo-1,6-diazabicyclo[3.2.1]octan-6-yl hydrogen sulfate]",more active than Avibactam
9,"NCC(O)c1nnc([C@@H]2CC[C@@H]3CN2C(=O)N3OS(=O)(=O)O)o1 (stereo partly drawn) [Compound 715, (2S,5R)-2-(5-(2-amino-1-hydroxyethyl)-1,3,4-oxadiazol-2-yl)-7-oxo-1,6-diazabicyclo[3.2.1]octan-6-yl hydrogen sulfate]",more active than Avibactam
10,"NCCNCCc1nnc([C@@H]2CC[C@@H]3CN2C(=O)N3OS(=O)(=O)O)o1 [Compound 716, (2S,5R)-2-(5-(2-((2-aminoethyl)amino)ethyl)-1,3,4-oxadiazol-2-yl)-7-oxo-1,6-diazabicyclo[3.2.1]octan-6-yl hydrogen sulfate]",more active than Avibactam
11,"O=C1N2C[C@@H](CC[C@H]2c2nnc(CCCN3CCNCC3)o2)N1OS(=O)(=O)O [Compound 792, (2S,5R)-7-oxo-2-(5-(3-(piperazin-1-yl)propyl)-1,3,4-oxadiazol-2-yl)-1,6-diazabicyclo[3.2.1]octan-6-yl hydrogen sulfate]",more active than Avibactam
